Data as given in PubChem BioAssay AID248 (DTP/NCI, 2004).
Values joined by “and” are separate entries in the source; they are usually repeats but may differ in a detail not shown here. Equal values may be shown once. Toxic doses and inconclusive results are not listed.

System: L1210 leukemia ip in BDF1 mice, survival T/C
Assay: NCI In Vivo Anticancer Drug Screen. Data for tumor model L1210 Leukemia (intraperitoneal) in B6D2F1 (BDF1) mice
Conditions: endpoint: mean survival time, higher = longer survival
Summary of the method: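 Ratio derived from survival: compound-dosed mice over vehicle-dosed mice, all bearing a transplantable tumor.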

[1] = dose: 100.0 mg/kg/injection, schedule: Q01DX009 (ip), vehicle: Klucel (hydroxypropylcellulose) (HPC)
[2] = dose: 100.0 mg/kg/injection, schedule: Q04DX003 (ip), vehicle: Klucel (hydroxypropylcellulose) (HPC)
[3] = dose: 200.0 mg/kg/injection, schedule: Q01DX009 (ip), vehicle: Klucel (hydroxypropylcellulose) (HPC)
[4] = dose: 200.0 mg/kg/injection, schedule: Q04DX003 (ip), vehicle: Klucel (hydroxypropylcellulose) (HPC)
[5] = dose: 400.0 mg/kg/injection, schedule: Q01DX009 (ip), vehicle: Klucel (hydroxypropylcellulose) (HPC)
[6] = dose: 400.0 mg/kg/injection, schedule: Q04DX003 (ip), vehicle: Klucel (hydroxypropylcellulose) (HPC)
[7] = dose: 6.25 mg/kg/injection, schedule: Q01DX009 (ip), vehicle: saline with Tween-80
[8] = dose: 12.5 mg/kg/injection, schedule: Q01DX009 (ip), vehicle: saline with Tween-80
[9] = dose: 25.0 mg/kg/injection, schedule: Q01DX009 (ip), vehicle: saline with Tween-80
[10] = dose: 75.0 mg/kg/injection, schedule: Q01DX001 (ip), vehicle: saline
[11] = dose: 50.0 mg/kg/injection, schedule: Q01DX009 (ip), vehicle: Klucel (hydroxypropylcellulose) (HPC)
[12] = dose: 100.0 mg/kg/injection, schedule: Q01DX009 (ip), vehicle: saline with Tween-80
[13] = dose: 200.0 mg/kg/injection, schedule: Q01DX009 (ip), vehicle: saline with Tween-80
[14] = dose: 400.0 mg/kg/injection, schedule: Q01DX009 (ip), vehicle: saline with Tween-80
[15] = dose: 100.0 mg/kg/injection, schedule: Q04DX002 (ip), vehicle: Klucel (hydroxypropylcellulose) (HPC)
[16] = dose: 200.0 mg/kg/injection, schedule: Q04DX002 (ip), vehicle: Klucel (hydroxypropylcellulose) (HPC)
[17] = dose: 400.0 mg/kg/injection, schedule: Q04DX002 (ip), vehicle: Klucel (hydroxypropylcellulose) (HPC)
[18] = dose: 100.0 mg/kg/injection, schedule: Q01DX001 (ip), vehicle: Klucel (hydroxypropylcellulose) (HPC)
[19] = dose: 200.0 mg/kg/injection, schedule: Q01DX001 (ip), vehicle: Klucel (hydroxypropylcellulose) (HPC)
[20] = dose: 100.0 mg/kg/injection, schedule: Q01DX001 (ip), vehicle: carboxymethylcellulose (CMC)
[21] = dose: 200.0 mg/kg/injection, schedule: Q01DX001 (ip), vehicle: carboxymethylcellulose (CMC)
[22] = dose: 400.0 mg/kg/injection, schedule: Q01DX001 (ip), vehicle: carboxymethylcellulose (CMC)

For BrC1C2CC3C(C2)C13 (configuration not stated), the T/C [1] was 104 % of control, the T/C [2] was 100 % of control and the T/C [3] was 95 % of control. For the same compound, the T/C [4] was 95 % of control, the T/C [5] was 98 % of control and the T/C [6] was 93 % of control.

In the case of O=C(C=C(C(F)(F)F)C(F)(F)F)c1cccc([N+](=O)[O-])c1, the T/C [7] is reported as 101 % of control, the T/C [8] is reported as 103 % of control and the T/C [9] is reported as 97 % of control.

With C[N+](C)(C)CC1CCCCC1 the T/C [10] was 103 % of control.

Nc1ncnc2c1ncn2C1OCC(OCc2ccccc2)C(OCc2ccccc2)C1OCc1ccccc1 (configuration not stated) was tested, and the T/C (dose: 100.0 mg/kg/injection, schedule: Q01DX001 (ip), vehicle: saline) was 98 % of control, the T/C (dose: 178.0 mg/kg/injection, schedule: Q01DX001 (ip), vehicle: saline) was 97 % of control and 104 % of control and the T/C (dose: 200.0 mg/kg/injection, schedule: Q01DX001 (ip), vehicle: saline) was 98 % of control and 96 % of control. For the same compound, the T/C (dose: 267.0 mg/kg/injection, schedule: Q01DX001 (ip), vehicle: saline) was 97 % of control and 103 % of control, the T/C (dose: 400.0 mg/kg/injection, schedule: Q01DX001 (ip), vehicle: saline) was 101 % of control and 220 % of control and 93 % of control and the T/C (dose: 600.0 mg/kg/injection, schedule: Q01DX001 (ip), vehicle: saline) was 97 % of control and 101 % of control.

For Nc1ccc(CSc2ccc(Cl)cc2)cc1, the T/C (dose: 12.5 mg/kg/injection, schedule: Q01DX009 (ip), vehicle: Klucel (hydroxypropylcellulose) (HPC)) was 94 % of control, the T/C (dose: 25.0 mg/kg/injection, schedule: Q01DX009 (ip), vehicle: Klucel (hydroxypropylcellulose) (HPC)) was 97 % of control and the T/C [11] was 87 % of control. The T/C (dose: 75.0 mg/kg/injection, schedule: Q01DX009 (ip), vehicle: Klucel (hydroxypropylcellulose) (HPC)) was 88 % of control and the T/C (dose: 170.0 mg/kg/injection, schedule: Q01DX009 (ip), vehicle: Klucel (hydroxypropylcellulose) (HPC)) was 94 % of control.

O=[N+]([O-])c1cccc(C=Nc2ccc(CCC3(CCl)OCCO3)cc2)c1 was tested, and the T/C (dose: 100.0 mg/kg/injection, schedule: Q01DX001 (ip), vehicle: gum acacia) was 96 % of control, the T/C (dose: 200.0 mg/kg/injection, schedule: Q01DX001 (ip), vehicle: gum acacia) was 98 % of control and the T/C (dose: 400.0 mg/kg/injection, schedule: Q01DX001 (ip), vehicle: gum acacia) was 98 % of control.

For CN1CC2CCCCC1C2OC(=O)C(c1ccccc1)c1ccccc1 (configuration not stated), the T/C [10] was 110 % of control and the T/C (dose: 150.0 mg/kg/injection, schedule: Q01DX001 (ip), vehicle: saline) was 101 % of control.

CC(=O)N(C1=CC(=O)c2ccccc2C1=O)c1ccc(Cl)cc1 was tested, and the T/C (dose: 75.0 mg/kg/injection, schedule: Q01DX001 (ip), vehicle: carboxymethylcellulose (CMC)) was 98 % of control, the T/C (dose: 150.0 mg/kg/injection, schedule: Q01DX001 (ip), vehicle: carboxymethylcellulose (CMC)) was 95 % of control and the T/C (dose: 300.0 mg/kg/injection, schedule: Q01DX001 (ip), vehicle: carboxymethylcellulose (CMC)) was 97 % of control.

In the case of CC(C)N(C(=O)c1ccc(C(=O)N(c2ccccc2)C(C)C)cc1)c1ccccc1, the T/C [12] is reported as 92 % of control, the T/C (dose: 100.0 mg/kg/injection, schedule: Q04DX003 (ip), vehicle: saline with Tween-80) is reported as 100 % of control and the T/C [13] is reported as 90 % of control. For the same compound, the T/C (dose: 200.0 mg/kg/injection, schedule: Q04DX003 (ip), vehicle: saline with Tween-80) was 94 % of control, the T/C [14] was 86 % of control and the T/C (dose: 400.0 mg/kg/injection, schedule: Q04DX003 (ip), vehicle: saline with Tween-80) was 87 % of control.

With CC(C)(C)c1ccc(SC(=O)Nc2cccc(Cl)c2Cl)cc1 the T/C [1] was 96 % of control, the T/C [15] was 92 % of control and the T/C [3] was 103 % of control. The T/C [16] was 92 % of control, the T/C [5] was 100 % of control and the T/C [17] was 95 % of control.

For CCOC(=O)c1ccc(NC(=O)c2cccc(F)c2)cc1, the T/C (dose: 100.0 mg/kg/injection, schedule: Q04DX002 (ip), vehicle: saline) was 91 % of control, the T/C (dose: 200.0 mg/kg/injection, schedule: Q04DX002 (ip), vehicle: saline) was 105 % of control and the T/C (dose: 400.0 mg/kg/injection, schedule: Q04DX002 (ip), vehicle: saline) was 109 % of control.

Cc1cc(C(=O)NNC(C)Cc2ccccc2)no1 (configuration not stated) was tested, and the T/C (dose: 4.6 mg/kg/injection, schedule: Q01DX009 (ip), vehicle: Klucel (hydroxypropylcellulose) (HPC)) was 94 % of control, the T/C (dose: 9.3 mg/kg/injection, schedule: Q01DX009 (ip), vehicle: Klucel (hydroxypropylcellulose) (HPC)) was 94 % of control and the T/C (dose: 18.75 mg/kg/injection, schedule: Q01DX009 (ip), vehicle: Klucel (hydroxypropylcellulose) (HPC)) was 97 % of control. The T/C (dose: 37.5 mg/kg/injection, schedule: Q01DX009 (ip), vehicle: Klucel (hydroxypropylcellulose) (HPC)) was 97 % of control.

For COC(=O)c1ccc(=O)n(C/C=C(\C)CCC(=O)O)c1, the T/C (dose: 100.0 mg/kg/injection, schedule: Q01DX009 (ip), vehicle: water) was 96 % of control, the T/C (dose: 100.0 mg/kg/injection, schedule: Q04DX003 (ip), vehicle: other) was 93 % of control and the T/C (dose: 200.0 mg/kg/injection, schedule: Q01DX009 (ip), vehicle: water) was 102 % of control. The T/C (dose: 200.0 mg/kg/injection, schedule: Q04DX003 (ip), vehicle: other) was 93 % of control, the T/C (dose: 400.0 mg/kg/injection, schedule: Q01DX009 (ip), vehicle: water) was 98 % of control and the T/C (dose: 400.0 mg/kg/injection, schedule: Q04DX003 (ip), vehicle: other) was 91 % of control.

In the case of O=S1(=O)CCCC(c2ccccc2)=C1c1ccccc1, the T/C [11] is reported as 102 % of control, the T/C [1] is reported as 105 % of control and the T/C [3] is reported as 91 % of control.

CCN(CC)C(=O)c1cncc(-c2ccccc2)c1 was tested, and the T/C [18] was 97 % of control and the T/C [19] was 98 % of control.

With Cc1ccc(C(C)CC(=O)O)cc1 (configuration not stated) the T/C [20] was 101 % of control, the T/C [21] was 95 % of control and the T/C [22] was 93 % of control.

C/C(=N\NC(N)=S)c1cccs1 was tested, and the T/C (dose: 12.5 mg/kg/injection, schedule: Q04DX003 (ip), vehicle: saline with Tween-80) was 93 % of control, the T/C (dose: 25.0 mg/kg/injection, schedule: Q04DX003 (ip), vehicle: saline with Tween-80) was 103 % of control and the T/C (dose: 50.0 mg/kg/injection, schedule: Q04DX003 (ip), vehicle: saline with Tween-80) was 101 % of control.

CCOC(=O)NC1CC2CCC1C2 (configuration not stated) was tested, and the T/C (dose: 50.0 mg/kg/injection, schedule: Q01DX001 (ip), vehicle: carboxymethylcellulose (CMC)) was 110 % of control, the T/C [20] was 103 % of control and the T/C [21] was 103 % of control. The T/C [22] was 103 % of control.

For NC(=O)c1cn[nH]c1N, the T/C [18] was 96 % of control, the T/C [1] was 95 % of control and 87 % of control and 93 % of control and the T/C [15] was 100 % of control and 102 % of control. The T/C [2] was 106 % of control and 93 % of control, the T/C [19] was 104 % of control and the T/C [3] was 93 % of control and 95 % of control. For the same compound, the T/C [16] was 96 % of control and 120 % of control, the T/C [4] was 100 % of control and 91 % of control and the T/C (dose: 400.0 mg/kg/injection, schedule: Q01DX001 (ip), vehicle: Klucel (hydroxypropylcellulose) (HPC)) was 96 % of control. For the same compound, the T/C [5] was 97 % of control and 123 % of control and 93 % of control, the T/C [17] was 100 % of control and 102 % of control and the T/C [6] was 87 % of control and 93 % of control.

For CC(=O)OCC1OC(n2cnc3c(=O)[nH]c(N)nc32)C(OC(C)=O)C1OC(C)=O (configuration not stated), the T/C (dose: 100.0 mg/kg/injection, schedule: Q01DX005 (ip), vehicle: saline) was 91 % of control and the T/C (dose: 200.0 mg/kg/injection, schedule: Q01DX005 (ip), vehicle: saline) was 102 % of control and 109 % of control.

For Oc1ccc(/C=N/NC(=S)NN2CCOCC2)nc1, the T/C [7] was 108 % of control, the T/C [8] was 116 % of control and the T/C (dose: 22.0 mg/kg/injection, schedule: Q04DX002 (ip), vehicle: saline with Tween-80) was 108 % of control. The T/C [9] was 108 % of control and 119 % of control, the T/C (dose: 33.0 mg/kg/injection, schedule: Q04DX002 (ip), vehicle: saline with Tween-80) was 101 % of control and the T/C (dose: 50.0 mg/kg/injection, schedule: Q04DX002 (ip), vehicle: saline with Tween-80) was 111 % of control.

In the case of O=C(Nc1ccccc1)C(Cl)Cl, the T/C [12] is reported as 96 % of control, the T/C [13] is reported as 91 % of control and the T/C [14] is reported as 96 % of control.
